Results published in patent US20260232834A1, “CYTOTOXICITY TARGETING CHIMERAS FOR ANTIBODY-DRUG CONJUGATES AND BISPECIFIC ANTIBODIES” (GLAXOSMITHKLINE INTELLECTUAL PROPERTY DEVELOPMENT LIMITED, priority 2023, published 2026).

Test system: PSMA-expressing cells (LNCAP)
Assay: Antibody-drug conjugate (ADC) cell killing assay, PSMA-expressing cells (CellTiter Glo)
Format: cell-based
Conditions: 100 nM ADC plus serial diluted PSMA targeted CyTaC (max 20 μM), 48 hours, FIG. 3
Description: An antibody-drug conjugate (ADC) cell killing assay was developed to screen cotinine targeted ADCs in a 384-well plate format. This assay utilized (i) an anti-cotinine antibody having a heavy chain sequence of SEQ ID NO: 9 and a light chain sequence of SEQ ID NO: conjugated with Deruxtecan and (ii) a Prostate Specific Membrane Antigen (PSMA) Cytotoxicity Targeting Chimera (CyTaC) to target PSMA expressing cells for death. The structures of the ADC and PSMA targeted CyTaC used in this experiment are shown below:
To screen ADCs, 10,000 PSMA-expressing cells (LNCAP) or 10,000 non-expressing cells (CHO) in media (RPMI 1640 (Gibco) containing 10% fetal bovine serum (Gibco)) were transferred to a 384-well plate (Greiner Bio-One). To each well containing cells, 100 nM ADC was added. Next, serial diluted PSMA targeted CyTaC (maximum concentration of 20 μM) was added to appropriate wells. The plates were then incubated for 48 hours at 37° C. with 5% CO2. Following the 48 hour incubation, an equal volume of CellTiter Glo (Promega) was added to each well and the plates were read on a PheraStar Plate Reader (BMG) to measure cell viability via Luminescence signal. Signal: background was calculated by dividing the signal of a test well by the signal obtained when no CyTaC was added. The % cell death was calculated by: (1-(test well signal/no CyTaC signal))*100. […]

SMILES: CN1C(=O)C[C@H](C(=O)NCCO[C@H]2CC[C@H](OCCCC(=O)N[C@H]3CC[C@H](C(=O)N[C@@H](Cc4ccc5ccccc5c4)C(=O)NCCCC[C@H](NC(=O)N[C@@H](CCC(=O)O)C(=O)O)C(=O)O)CC3)CC2)[C@H]1c1cccnc1 [PSMA targeted CyTaC]
- ADC mediated cell killing (% cell death): ADC mediated cell killing of PSMA expressing cells
